According to patent US20120277312A1, “Ethylgallate and Related Compounds as a Treatment for Sepsis and Septic Shock” (priority 2009, published 2012):
Marks after values point to notes of the source that are not given here.

Tested on: Escherichia coli septic shock in dogs
Assay: In-vivo model of Escherichia coli septic shock in dogs
Set-up: species or system dog
Conditions: for PCO2: arterial; for Urine-volume: per hour
From the text: We have thus far studied 5 dogs in septic shock in which ethyl gallate was infused. We have compared the results obtained in this group with those found in septic animals (n=5) in which this treatment was not given. In addition, in preliminary experiments, we have looked at the effect of ethyl gallate infusion on hemodynamics in non-septic animals (n=3). In a time control non-septic group in which placebo (normal saline solution) was given, we have studied one animal.
The E coli model used in the studies was identical to that previously described (2). Sepsis was induced by the intravenous infusion of 10^10 colony forming units of live E coli (designation 011:B4). The bacteria were suspended in normal saline solution and were given over 0.5 hour. A constant infusion of approximately 5×10^9 colony forming units/hour of E coli was then maintained over the duration of the two studies.
The animals (16-24 kg) were initially anesthetized with thiopental sodium (20 mg/kg, intravenously) and constantly infused with sufentanil citrate (1-3 μg/min) and midazolam (5 μg/kg/min) (2). Drug rates were adjusted as required to abolish the palpebral reflex. The animals were placed in the supine position; the trachea was […] with an endotracheal tube; and the lungs were mechanically ventilated at a tidal volume of 20 ml/kg. The ventilator rate was initially set to maintain blood pH at approximately 7.35. The rate was increased as necessary to reverse the metabolic acidosis that developed over the course of the study. Approximately 100% oxygen was inspired, so that hypoxemia would not affect the results of the study.
Under sterile conditions and by percutaneous techniques (Arrow International, Reading, Pa.) (2), a thermister tipped catheter was advanced from the right jugular vein into the pulmonary artery to measure mean pulmonary arterial pressure (Ppa), mean pulmonary capillary wedge pressure (Pwp), mean right atrial pressure (Rap), and thermodilution cardiac output (CO) (Edwards Lifesciences, Irvine, Calif.). Another introducer was placed into the left jugular vein for administration of intravenous saline solution, the E coli infusion, and the treatment or placebo drugs. A catheter was placed into the bladder through the urethra to measure urine output over the course of the study. A polyethylene catheter was percutaneously placed into the femoral artery to measure MAP and to obtain samples of blood for arterial PO2, PCO2, pH, hematocrit (Hct), serum electrolytes and creatinine, liver function tests, and lactate concentrations. The laboratory tests were performed by the clinical laboratories at the Health Sciences Centre.
All vascular catheters were connected to transducers (Cobe, Argon Medical Devices Inc, Athens, Tex.), were referenced relative to the left atrium, and were connected to a chart recorder (Astro-Med, W Warwick, R.I.) (2). Heart rate (HR) was measured from the recorder tracing. Stroke-volume (SV) was calculated as CO/HR. Systemic vascular resistance (SVR) was calculated from [(MAP−Pra)/CO]*80.
Stroke work (SW) was our primary index of cardiac performance and the primary hemodynamic endpoint chosen (2). At constant preload, SW reflects both the decrease in afterload and the change in contractile function that accompany sepsis. SW was determined at approximately the same Pwp at each measurement interval. The baseline Pwp usually averaged ≈8-10 mmHg, and normal saline solution was given as necessary to maintain Pwp constant over the experimental period. SW was calculated from SV*(MAP−Pwp).
The purpose of this study was to determine whether ethyl-gallate could reverse the fall in MAP that occurs in this sepsis model. Ethyl gallate was infused after MAP pressure fell approximately 30 to 40% from the baseline value in which this decline in MAP was not responsive to volume infusion to return Pwp to the baseline value (septic shock condition). […]

[1] = septic dogs n = 5, 3 hrs post treatment
[2] = septic dogs n = 5, 5 hrs post treatment
[3] = septic dogs n = 5, Baseline (before sepsis and treatment)
[4] = septic dogs n = 5, septic shock (before treatment)
[5] = septic dogs n = 5, 1 hr post treatment
[6] = septic dogs n = 5, 2 hrs post treatment
[7] = septic dogs n = 5, 4 hrs post treatment
[8] = septic dogs, ethyl-gallate treated group

With CCOC(=O)c1cc(O)c(O)c(O)c1 [ethyl gallate] the “duration of increase in mean arterial pressure after bolus” value (2 gram intravenous bolus after 5 hours of septic shock, one animal) was “over 75 minutes”, the PCO2 [1] was 21 ± 2*# mmHg and the PCO2 [2] was 19 ± 2* mmHg. The PCO2 [3] was 29 ± 4 mmHg, the PCO2 [4] was 27 ± 4 mmHg and the “duration of increase in MAP after bolus” value (bolus after the study was completed, one animal of placebo group) was “over 1 hr”. For the same compound, the “time in which infusion increased arterial pressure” value (individual septic dog, FIG. 2) was “approximately 18 minutes”, the Urine-volume [5] was 67 ± 58 mL and the Urine-volume [6] was 42 ± 19 mL. For the same compound, the Urine-volume [1] was 42 ± 19 mL, the Urine-volume [7] was 36 ± 26 mL and the Urine-volume [2] was 36 ± 26 mL. For the same compound, the Urine-volume [4] was 45 ± 34 mL, the “dogs that died over the course of the study” value (septic dogs) was “None” and the HR [5] was 116 ± 47 beats/min. For the same compound, the Ppa [5] was 18 ± 4.8 mmHg, the Rap [5] was 8 ± 1.3 mmHg and the HR [6] was 111 ± 33 beats/min. For the same compound, the Ppa [6] was 18 ± 5 mmHg, the Rap [6] was 8.6 ± 1.7 mmHg and the ALT [1] was 210 ± 90 IU. For the same compound, the AST [1] was 268 ± 162 IU, the “Alk P'tase” value [1] was 54 ± 36 international units and the “Arterial pH” value [1] was 7.21 ± .08*. For the same compound, the HR [1] was 107 ± 34 beats/min, the LD [1] was 253 ± 172* IU and the Platelets [1] was 100 ± 37* ×10^9/L. For the same compound, the Ppa [1] was 21 ± 6 mmHg, the Rap [1] was 8.8 ± 0.8 mmHg and the WBC [1] was 2.1 ± 1.9 ×10^9/L. For the same compound, the bilirubin [1] was 11 ± 4.5* mmol/L, the chloride [1] was 130 ± 6* mmol/L and the glucose [1] was 4.4 ± 1.5 mmol/L. For the same compound, the sodium [1] was 152 ± 5 mmol/L, the “total CO2” value [1] was 14 ± 2* mmol/L and the HR [7] was 115 ± 36 beats/min. The Ppa [7] was 21 ± 9 mmHg, the Rap [7] was 9.2 ± 1.1 mmHg and the ALT [2] was 236 ± 56 IU. The AST [2] was 337 ± 141 IU, the “Alk P'tase” value [2] was 91 ± 39* international units and the “Arterial pH” value [2] was 7.14 ± .06*. For the same compound, the HR [2] was 110 ± 34 beats/min, the LD [2] was 335 ± 175* IU and the Platelets [2] was 74 ± 21* ×10^9/L. For the same compound, the Ppa [2] was 23 ± 7* mmHg, the Rap [2] was 8.6 ± 1.3 mmHg and the WBC [2] was 2.64 ± 2.3 ×10^9/L. For the same compound, the chloride [2] was 130 ± 7* mmol/L, the glucose [2] was 3.6 ± 2.2 mmol/L and the sodium [2] was 153 ± 6 mmol/L. For the same compound, the “total CO2” value [2] was 14 ± 2* mmol/L, the ALT [3] was 52 ± 20 IU and the AST [3] was 18 ± 4 IU. The “Alk P'tase” value [3] was 31 ± 11 international units, the HR [3] was 59 ± 8* beats/min and the LD [3] was 26 ± 4 IU. The Platelets [3] was 196 ± 18 ×10^9/L, the Ppa [3] was 16 ± 1.3 mmHg and the Rap [3] was 9 ± 1.2 mmHg. For the same compound, the WBC [3] was 3.2 ± 1.9 ×10^9/L, the chloride [3] was 118 ± 3 mmol/L and the glucose [3] was 5.5 ± 0.3 mmol/L. For the same compound, the sodium [3] was 151 ± 2 mmol/L, the “total CO2” value [3] was 21 ± 3 mmol/L and the ALT [4] was 139 ± 116 IU. The AST [4] was 137 ± 130 IU, the “Alk P'tase” value [4] was 41 ± 27 international units and the “Arterial pH” value [4] was 7.26 ± .06*. The HR [4] was 145 ± 33 beats/min, the LD [4] was 128 ± 82 IU and the Platelets [4] was 117 ± 27* ×10^9/L. For the same compound, the Ppa [4] was 15 ± 2.3 mmHg, the Rap [4] was 7 ± 1.3 mmHg and the WBC [4] was 1.3 ± 0.7 ×10^9/L. The chloride [4] was 123 ± 8*+ mmol/L, the glucose [4] was 5.3 ± 0.3 mmol/L and the sodium [4] was 150 ± 7+ mmol/L. The “total CO2” value [4] was 18 ± 2* mmol/L, the urine output (septic dogs, between the two groups) was “no difference” and the “mean arterial pressure (MAP)” value (septic dogs, by 1 hour post-treatment, remained over the course of study) was “returned to the baseline value”. For the same compound, the serum haemoglobin concentration (septic dogs, end of the study, vs non-ethyl gallate treated group) was “higher”, the “time post infusion by which increase in MAP was evident” value (septic dogs, ethyl gallate infusion) was at most 20 min and the “cardiac output (CO)” value [8] was “did not fall”. For the same compound, the “stroke volume (SV)” value [8] was “did not fall”, the “stroke work (SW)” value (septic dogs, over the 5 post-treatment measurement intervals, vs non-treated group) was “generally higher” and the serum creatinine (septic dogs, over the course of the study) was “decreased”. The “creatine kinase (CK), evidence of rhabdomyolysis” value (septic dogs, vs non-treated group) was “less”, the “normal saline required to maintain Pwp at the baseline value” (septic dogs, vs 4.7±0.8 L in non-treated group, P<0.05) was 3.38 ± 0.8 L and the “systemic vascular resistance (SVR)” value (septic dogs, vs septic shock condition and vs non-treated septic group) was “significantly increased”.
